{"source": "ChEMBL document CHEMBL1201862", "about": "“PubChem BioAssay data set” (2004)", "key": {"[1]": {"target": "T1, Eukaryotic translation initiation factor 4H (Homo sapiens, UniProt Q15056)", "assay": "inhibitors of translation initiation factor eIF4H – SAR follow-up (AID 435011)", "format": "functional"}, "[2]": {"target": "T2, Polyadenylate-binding protein 1 (Homo sapiens, UniProt P11940)", "T2 sequence (P11940 whole entry)": "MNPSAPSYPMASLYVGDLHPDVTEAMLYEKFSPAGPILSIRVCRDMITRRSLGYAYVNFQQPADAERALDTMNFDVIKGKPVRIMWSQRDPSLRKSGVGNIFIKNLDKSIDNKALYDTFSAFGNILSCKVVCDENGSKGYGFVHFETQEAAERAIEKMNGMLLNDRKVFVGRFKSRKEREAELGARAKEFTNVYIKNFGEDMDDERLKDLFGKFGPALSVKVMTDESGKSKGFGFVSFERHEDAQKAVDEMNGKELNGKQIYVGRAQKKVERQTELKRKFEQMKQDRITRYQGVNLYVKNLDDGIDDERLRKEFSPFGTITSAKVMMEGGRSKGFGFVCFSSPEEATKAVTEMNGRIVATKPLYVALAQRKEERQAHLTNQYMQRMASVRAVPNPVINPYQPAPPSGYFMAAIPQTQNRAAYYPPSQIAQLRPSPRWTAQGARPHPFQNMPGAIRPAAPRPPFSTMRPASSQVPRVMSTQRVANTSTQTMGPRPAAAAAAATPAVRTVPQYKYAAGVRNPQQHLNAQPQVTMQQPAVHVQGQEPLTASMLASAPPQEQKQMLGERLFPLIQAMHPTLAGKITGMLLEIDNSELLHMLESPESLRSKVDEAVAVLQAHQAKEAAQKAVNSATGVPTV", "assay": "PABP inhibition in translation initiation, SAR follow-up (AID 435018)", "format": "functional"}, "SUMO-activating enzyme [3]": {"target": "T3, SUMO-activating enzyme (Homo sapiens, UniProt Q9UBT2)", "T3 sequence (Q9UBE0 whole entry)": "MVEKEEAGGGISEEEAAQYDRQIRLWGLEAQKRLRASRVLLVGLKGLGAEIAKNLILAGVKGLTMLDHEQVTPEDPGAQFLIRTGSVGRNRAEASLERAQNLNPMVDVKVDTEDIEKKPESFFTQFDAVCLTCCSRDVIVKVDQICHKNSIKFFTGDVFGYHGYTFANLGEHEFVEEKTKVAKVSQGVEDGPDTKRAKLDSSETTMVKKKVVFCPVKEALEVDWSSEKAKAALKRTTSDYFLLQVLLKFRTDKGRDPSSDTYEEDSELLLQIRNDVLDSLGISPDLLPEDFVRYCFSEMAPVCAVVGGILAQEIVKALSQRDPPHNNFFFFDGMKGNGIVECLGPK", "T3 sequence (Q9UBT2 whole entry)": "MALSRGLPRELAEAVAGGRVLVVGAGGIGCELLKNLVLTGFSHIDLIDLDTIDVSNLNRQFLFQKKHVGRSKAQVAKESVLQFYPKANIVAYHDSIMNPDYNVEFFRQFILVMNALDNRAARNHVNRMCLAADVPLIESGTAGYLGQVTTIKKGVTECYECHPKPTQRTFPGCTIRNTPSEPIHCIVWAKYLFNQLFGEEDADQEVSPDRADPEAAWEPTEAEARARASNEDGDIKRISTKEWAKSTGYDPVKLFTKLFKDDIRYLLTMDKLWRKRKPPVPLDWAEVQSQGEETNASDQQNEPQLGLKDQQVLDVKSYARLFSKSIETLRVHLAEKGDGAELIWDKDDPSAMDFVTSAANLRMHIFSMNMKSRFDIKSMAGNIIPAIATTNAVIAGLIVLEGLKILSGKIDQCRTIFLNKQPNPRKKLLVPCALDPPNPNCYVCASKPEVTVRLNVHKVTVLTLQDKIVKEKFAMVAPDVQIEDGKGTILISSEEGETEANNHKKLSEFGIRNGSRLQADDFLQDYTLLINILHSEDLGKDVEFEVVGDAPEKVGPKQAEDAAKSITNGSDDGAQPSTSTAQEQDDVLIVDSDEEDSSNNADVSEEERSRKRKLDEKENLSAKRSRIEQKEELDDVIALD", "assay": "blockers of SAE1/SAE2–UBC9 SUMO transfer – biochemical, HTRF, uHTS, primary screen (AID 2006)", "format": "protein-complex assay"}, "SUMO-activating enzyme [4]": {"target": "T3, SUMO-activating enzyme", "assay": "blockers of UBC9-mediated SUMO conjugation – biochemical, AlphaScreen, SUMOylation inhibitor project, confirmation (AID 2018)", "format": "functional"}, "[5]": {"target": "Induced myeloid leukemia cell differentiation protein Mcl-1 (Homo sapiens, UniProt Q07820)", "format": "functional"}, "[6]": {"target": "T2, Polyadenylate-binding protein 1", "assay": "blockers of PABP interaction with poly(A) – biochemical, fluorescence polarization, […] (AID 2014)"}, "[7]": {"target": "T1, Eukaryotic translation initiation factor 4H", "assay": "eIF4H binding inhibition – biochemical, uHTS, fluorescence polarization, translation initiation inhibitor project, primary screen (AID 2012)"}, "[8]": {"assay": "THP-1 cell cytotoxicity, dose response, cytotoxicity control for non-replicating M. tuberculosis project (AID 489025)", "format": "functional"}, "[9]": {"assay": "Luminescence Cell-Based Dose Retest to Confirm Inhibitors of Cancer Stem Cells. [Related pubchem assays (depositor defined):AID2717, AID2721]", "format": "functional", "settings": "Homo sapiens"}, "[10]": {"target": "Neurotensin receptor type 1 (Homo sapiens, UniProt P30989)", "sequence (P30989 whole entry)": "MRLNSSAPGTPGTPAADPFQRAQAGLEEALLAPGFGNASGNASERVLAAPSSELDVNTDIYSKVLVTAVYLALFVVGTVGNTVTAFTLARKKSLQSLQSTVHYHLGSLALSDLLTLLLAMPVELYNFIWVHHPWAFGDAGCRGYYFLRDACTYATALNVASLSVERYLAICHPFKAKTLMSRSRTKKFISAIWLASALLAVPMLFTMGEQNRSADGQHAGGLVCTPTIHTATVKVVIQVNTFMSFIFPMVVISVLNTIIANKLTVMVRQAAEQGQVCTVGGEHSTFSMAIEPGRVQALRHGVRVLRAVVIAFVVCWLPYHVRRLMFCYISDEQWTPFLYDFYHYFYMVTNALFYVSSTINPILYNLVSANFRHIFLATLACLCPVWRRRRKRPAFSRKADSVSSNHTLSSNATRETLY", "format": "functional"}, "cells": {"assay": "cells", "format": "functional"}, "[11]": {"assay": "Vero E6 cell cytotoxicity, dose response, cytotoxicity control for non-replicating M. tuberculosis project, secondary assay (AID 492998)", "format": "functional, VeroE6", "settings": "Vero C1008"}, "[12]": {"assay": "HepG2 cell cytotoxicity, dose response, cytotoxicity control for non-replicating M. tuberculosis project (AID 489018)", "format": "functional", "settings": "Mycobacterium tuberculosis"}, "[13]": {"target": "T4, Melanin-concentrating hormone receptor 1 (Homo sapiens, UniProt Q99705)", "T4 sequence (Q99705 whole entry)": "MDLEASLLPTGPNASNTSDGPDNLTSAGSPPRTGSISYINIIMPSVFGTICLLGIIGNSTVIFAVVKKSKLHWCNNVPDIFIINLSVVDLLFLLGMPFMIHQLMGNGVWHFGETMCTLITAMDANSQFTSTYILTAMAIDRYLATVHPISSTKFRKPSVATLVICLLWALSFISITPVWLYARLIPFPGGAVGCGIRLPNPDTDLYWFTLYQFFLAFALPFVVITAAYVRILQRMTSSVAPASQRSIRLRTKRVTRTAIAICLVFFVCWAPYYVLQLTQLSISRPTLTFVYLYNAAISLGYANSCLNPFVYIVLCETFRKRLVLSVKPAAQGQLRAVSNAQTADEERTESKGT", "assay": "Late-stage fluorescence-based counterscreen for antagonists of the G-protein coupled receptor 7 (GPR7): cell-based dose response assay to identify antagonists of the melanin-concentrating hormone receptor 1 (MCHR1). [Related pubchem assays (depositor defined):AID1861, AID1880, AID1952, AID2148, AID2251, AID2257, AID485339]", "format": "functional"}, "[14]": {"target": "T5, Neuropeptides B/W receptor type 1 (Homo sapiens, UniProt P48145)", "T5 sequence (P48145 whole entry)": "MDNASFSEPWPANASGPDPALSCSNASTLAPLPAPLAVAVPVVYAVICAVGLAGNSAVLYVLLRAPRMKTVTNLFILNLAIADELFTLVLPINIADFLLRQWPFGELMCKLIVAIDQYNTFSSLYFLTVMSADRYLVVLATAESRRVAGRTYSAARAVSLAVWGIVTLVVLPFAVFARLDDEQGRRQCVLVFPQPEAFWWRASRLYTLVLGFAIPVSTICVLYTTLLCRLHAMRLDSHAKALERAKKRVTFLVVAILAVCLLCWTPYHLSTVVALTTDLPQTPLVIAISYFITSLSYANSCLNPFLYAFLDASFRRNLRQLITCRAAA", "assay": "Fluorescence-based dose response cell-based high throughput screening assay to identify antagonists of the G-protein coupled receptor 7 (GPR7). [Related pubchem assays: 1952 (Screening assay (GPR7 antagonists).), 1880 (Summary AID.)]", "format": "functional"}, "[15]": {"target": "T5, Neuropeptides B/W receptor type 1", "assay": "human NPBW1 receptor blockade, IC50 – cell-based, fluorescence, dose response, late-stage follow-up (AID 463251)", "format": "functional"}, "[16]": {"target": "T4, Melanin-concentrating hormone receptor 1", "assay": "Fluorescence-based counterscreen for antagonists of the G-protein coupled receptor 7 (GPR7): cell-based high throughput dose response assay to identify antagonists of the melanin-concentrating hormone receptor 1 (MCHR1).", "format": "functional"}, "HeLa": {"system": "HeLa", "assay": "viability loss in HeLa cells – cell-based, 24 h, cherry-picked samples, cytotoxicity control, dose response (AID 504726)", "format": "functional", "settings": "Homo sapiens"}, "ORF 73": {"target": "ORF 73 (Human herpesvirus 8, UniProt O40947)", "sequence (O40947 whole entry)": "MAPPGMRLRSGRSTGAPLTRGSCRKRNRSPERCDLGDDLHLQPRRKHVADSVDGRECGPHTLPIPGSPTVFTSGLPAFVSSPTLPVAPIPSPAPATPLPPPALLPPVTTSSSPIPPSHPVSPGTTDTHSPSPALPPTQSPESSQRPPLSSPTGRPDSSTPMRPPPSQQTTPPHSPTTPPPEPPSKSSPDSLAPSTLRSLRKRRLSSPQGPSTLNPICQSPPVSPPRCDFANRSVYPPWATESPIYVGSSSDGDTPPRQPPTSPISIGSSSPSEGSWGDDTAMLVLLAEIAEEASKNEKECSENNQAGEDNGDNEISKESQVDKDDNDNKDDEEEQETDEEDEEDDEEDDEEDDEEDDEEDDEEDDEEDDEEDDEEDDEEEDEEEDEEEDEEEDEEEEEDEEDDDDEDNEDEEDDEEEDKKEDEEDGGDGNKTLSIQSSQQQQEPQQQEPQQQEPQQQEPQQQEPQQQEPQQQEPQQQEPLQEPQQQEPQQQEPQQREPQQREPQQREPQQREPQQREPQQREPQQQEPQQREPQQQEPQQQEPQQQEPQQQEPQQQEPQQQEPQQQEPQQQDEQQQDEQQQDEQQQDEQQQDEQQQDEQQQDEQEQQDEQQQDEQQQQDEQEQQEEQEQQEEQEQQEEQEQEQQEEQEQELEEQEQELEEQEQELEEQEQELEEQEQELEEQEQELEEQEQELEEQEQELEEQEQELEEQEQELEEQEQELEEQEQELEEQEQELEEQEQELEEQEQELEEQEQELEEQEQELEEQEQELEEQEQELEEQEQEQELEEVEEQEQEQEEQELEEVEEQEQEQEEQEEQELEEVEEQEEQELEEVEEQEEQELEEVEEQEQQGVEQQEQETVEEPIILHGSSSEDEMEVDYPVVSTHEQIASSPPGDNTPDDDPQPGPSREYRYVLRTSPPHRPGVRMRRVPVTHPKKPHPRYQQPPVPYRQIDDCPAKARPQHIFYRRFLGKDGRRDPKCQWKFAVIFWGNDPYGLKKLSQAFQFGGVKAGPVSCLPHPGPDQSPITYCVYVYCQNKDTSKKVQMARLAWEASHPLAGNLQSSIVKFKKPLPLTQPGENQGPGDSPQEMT", "assay": "KSHV LANA DNA-binding disruption – biochemical, fluorescence polarization, cherry-picked samples, dose response (AID 504725);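 further: fluorescence polarization of a labeled DNA duplex reporting LANA DNA binding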", "set-up": "species or system Human gammaherpesvirus 8"}, "Genome polyprotein": {"target": "Genome polyprotein (dengue virus type 2, UniProt P29990)", "sequence (P29990 2492-3391 limits assumed)": "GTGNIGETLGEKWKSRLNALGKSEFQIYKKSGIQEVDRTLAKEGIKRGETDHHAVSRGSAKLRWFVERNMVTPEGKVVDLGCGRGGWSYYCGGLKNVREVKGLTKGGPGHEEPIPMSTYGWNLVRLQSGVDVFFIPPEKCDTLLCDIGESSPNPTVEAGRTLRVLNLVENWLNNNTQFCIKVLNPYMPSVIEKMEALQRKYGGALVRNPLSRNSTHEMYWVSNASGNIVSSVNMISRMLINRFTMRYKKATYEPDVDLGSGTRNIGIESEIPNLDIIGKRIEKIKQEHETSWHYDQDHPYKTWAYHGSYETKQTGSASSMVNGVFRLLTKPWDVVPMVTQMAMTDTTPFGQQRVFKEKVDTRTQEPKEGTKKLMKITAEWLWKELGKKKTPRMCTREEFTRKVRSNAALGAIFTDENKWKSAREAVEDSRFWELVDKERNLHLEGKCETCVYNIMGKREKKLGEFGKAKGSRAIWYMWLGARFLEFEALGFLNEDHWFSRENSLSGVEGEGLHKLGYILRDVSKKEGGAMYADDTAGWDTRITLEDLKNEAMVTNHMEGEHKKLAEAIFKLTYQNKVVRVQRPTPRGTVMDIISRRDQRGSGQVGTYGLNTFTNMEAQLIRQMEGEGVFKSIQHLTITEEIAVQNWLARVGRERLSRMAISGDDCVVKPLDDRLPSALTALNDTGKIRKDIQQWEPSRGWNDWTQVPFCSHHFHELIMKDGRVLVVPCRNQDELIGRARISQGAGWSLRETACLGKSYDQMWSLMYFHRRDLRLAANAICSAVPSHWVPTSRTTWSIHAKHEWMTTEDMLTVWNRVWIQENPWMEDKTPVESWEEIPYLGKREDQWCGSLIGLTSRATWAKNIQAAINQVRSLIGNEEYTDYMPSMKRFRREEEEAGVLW", "assay": "flavivirus cap methylation enzyme inhibition – biochemical, confirmation dose response, primary screen (AID 588689)", "format": "functional"}, "Caspase-6": {"target": "T6, Caspase-6 (Homo sapiens, UniProt P55212)", "T6 sequence (P55212 whole entry)": "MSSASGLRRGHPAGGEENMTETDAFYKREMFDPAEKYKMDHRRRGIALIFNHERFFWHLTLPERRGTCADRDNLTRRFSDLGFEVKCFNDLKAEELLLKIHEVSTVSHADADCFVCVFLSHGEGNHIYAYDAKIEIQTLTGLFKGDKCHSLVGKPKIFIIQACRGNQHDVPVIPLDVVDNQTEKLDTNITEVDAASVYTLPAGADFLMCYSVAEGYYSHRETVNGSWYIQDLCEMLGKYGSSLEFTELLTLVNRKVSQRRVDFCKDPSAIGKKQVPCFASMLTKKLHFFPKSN", "assay": "inhibition of CASP6 peptide cleavage – biochemical, VEID-R110 fluorescence, cherry-pick, dose response (AID 720632)"}, "[17]": {"target": "T7, Rac GTPase-activating protein 1 (Homo sapiens, UniProt Q9H0H5)", "T7 sequence (Q9H0H5 whole entry)": "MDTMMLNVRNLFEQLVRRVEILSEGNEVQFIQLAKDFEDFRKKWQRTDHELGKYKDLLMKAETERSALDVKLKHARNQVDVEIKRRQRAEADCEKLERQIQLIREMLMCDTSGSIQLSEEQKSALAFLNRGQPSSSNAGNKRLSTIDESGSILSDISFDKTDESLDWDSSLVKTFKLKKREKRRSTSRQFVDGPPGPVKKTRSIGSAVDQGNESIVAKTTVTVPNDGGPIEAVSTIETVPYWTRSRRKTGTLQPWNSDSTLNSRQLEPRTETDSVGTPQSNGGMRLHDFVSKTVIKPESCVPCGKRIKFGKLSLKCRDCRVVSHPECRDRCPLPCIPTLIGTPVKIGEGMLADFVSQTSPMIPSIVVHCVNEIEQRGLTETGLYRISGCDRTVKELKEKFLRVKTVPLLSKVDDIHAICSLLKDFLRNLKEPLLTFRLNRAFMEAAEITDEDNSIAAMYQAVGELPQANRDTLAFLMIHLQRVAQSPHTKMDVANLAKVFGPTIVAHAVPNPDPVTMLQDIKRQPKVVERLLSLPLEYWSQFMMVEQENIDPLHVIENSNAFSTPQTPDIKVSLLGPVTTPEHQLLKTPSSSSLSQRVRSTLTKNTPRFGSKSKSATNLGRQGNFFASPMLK", "assay": "blockers of MgcRacGAP-driven Rac1 GTP hydrolysis – biochemical, ADP Hunter fluorescence, primary and confirmatory, confirmation (AID 624330)", "format": "functional"}, "[18]": {"target": "T8, Small ubiquitin-related modifier 1 (Homo sapiens, UniProt P63165)", "T8 sequence (P63165 whole entry)": "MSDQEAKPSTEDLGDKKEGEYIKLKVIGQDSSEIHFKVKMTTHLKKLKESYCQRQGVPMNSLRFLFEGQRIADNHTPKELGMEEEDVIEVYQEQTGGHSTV", "assay": "SUMO1 protein interaction blockers, potency – biochemical, fluorescence polarization, uHTS hits, dose response (AID 624382)", "format": "functional", "settings": "read-out: IC50_Mean"}, "[19]": {"target": "T8, Small ubiquitin-related modifier 1", "assay": "SUMO1 protein-protein binding blockers, potency – biochemical, FRET, dose response (AID 624383)", "format": "functional", "settings": "read-out: IC50_Mean"}, "[20]": {"target": "Intestinal-type alkaline phosphatase (Homo sapiens, UniProt P09923)", "assay": "Dose Response confirmation of uHTS hits from a small molecule inhibitors of human intestinal alkaline phosphatase via a luminescent assay. [Related pubchem assays (depositor defined):AID2544, AID2574]", "format": "functional"}, "Procathepsin L": {"target": "Procathepsin L (Homo sapiens, UniProt P07711)"}, "Aspartyl aminopeptidase": {"target": "Aspartyl aminopeptidase (Plasmodium falciparum 3D7, UniProt Q8I2J3)"}}, "note": "Activity calls are given as the source filed them.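 Wherever EC50 is given: Image-based confirmatory dose-response assay measuring agonist activity at NTR1; NTR1-expressing U2OS osteosarcoma cells imaged for beta-arrestin GFP spot formation; agonist potency where compounds increase beta-arrestin recruitment.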"}
{"smiles": "CCOC(=O)Cc1c(Sc2ccccc2)c2cc(C)ccc2n1C", "values": [{"measurement": "IC50", "setting": "[1]", "value": "> 100 µM (inactive)"}, {"measurement": "IC50", "setting": "[2]", "value": "> 100 µM (inactive)"}]}
{"smiles": "NC(=S)n1nc(-c2ccc([N+](=O)[O-])cc2)c(/N=N/c2cccc(Cl)c2)c1O", "values": [{"measurement": "IC50", "setting": "SUMO-activating enzyme [3]", "value": "51.5 µM (active)"}, {"measurement": "IC50", "setting": "SUMO-activating enzyme [4]", "value": "3.29 µM (active)"}, {"measurement": "IC50", "setting": "[5]", "value": "1.44 µM (active)"}]}
{"smiles": "Cc1ccc(OCC(=O)N/N=C/C=C/c2ccco2)cc1", "values": [{"measurement": "IC50", "setting": "[6]", "value": "45.5 µM (active)"}, {"measurement": "IC50", "setting": "[7]", "value": "15.6 µM (active)"}]}
{"smiles": "Cc1ccc2c(c1)c1c(n2CC(O)CNC2CCCCC2)CCCC1", "note": "(configuration not stated)", "values": [{"measurement": "CC50", "setting": "[8]", "value": "12.1 µM (active)"}, {"measurement": "AC50", "setting": "[9]", "value": "9.21 µM (active)"}, {"measurement": "EC50", "setting": "[10]", "value": "17 µM (active)"}, {"measurement": "IC50", "setting": "cells", "value": "33.4 µM (active)"}, {"measurement": "CC50", "setting": "[11]", "value": "> 20 µM (active)"}, {"measurement": "CC50", "setting": "[12]", "value": "11.9 µM (active)"}]}
{"smiles": "COc1cc(OC)c(S(=O)(=O)N2CCCCC2)cc1S(=O)(=O)N1CCCCC1", "values": [{"measurement": "IC50", "setting": "[13]", "value": "> 20 µM (inactive)"}, {"measurement": "IC50", "setting": "[14]", "value": "7.02 µM (active)"}, {"measurement": "IC50", "setting": "[15]", "value": "> 20 µM (inactive)"}, {"measurement": "IC50", "setting": "[16]", "value": "> 43.8 µM (not active)"}]}
{"smiles": "CNC(S)=Nc1cccc(C(=O)OC)c1", "values": [{"measurement": "AC50", "setting": "HeLa", "value": "213 µM (active)"}]}
{"smiles": "CC(=O)Nc1ccc(S(=O)(=O)Nc2nc3ccccc3nc2Nc2ccc(C(=O)O)c(O)c2)cc1", "values": [{"measurement": "AC50", "setting": "ORF 73", "value": "42.3 µM (active)"}, {"measurement": "IC50", "setting": "Genome polyprotein", "value": "> 100 µM (active)"}, {"measurement": "AC50", "setting": "Caspase-6", "value": "13.2 µM (active)"}, {"measurement": "IC50", "setting": "[17]", "value": "166 µM (active)"}, {"measurement": "IC50", "setting": "[18]", "value": "> 66.6 µM (inactive)"}, {"measurement": "IC50", "setting": "[19]", "value": "88.1 µM (inactive)"}]}
{"smiles": "CC(C)(C)NN/C=C1\\C(=O)N(c2ccc(Cl)cn2)C(=O)c2ccccc21", "values": [{"measurement": "IC50", "setting": "[20]", "value": "> 100 µM (inactive)"}]}
{"smiles": "CCc1ccccc1N=C(S)Nn1cnnc1", "values": [{"measurement": "IC50", "setting": "Procathepsin L", "value": "> 59.6 µM (not active)"}, {"measurement": "IC50", "setting": "Aspartyl aminopeptidase", "value": "3.03 µM (active)"}]}
